Experimental data reported in patent publication US20120178915A1, “PYRIMIDINE DERIVATIVES AND ANALOGS, PREPARATION METHOD AND USE THEREOF” (priority 2009, published 2012).
≈ marks a conversion by molar mass, not a printed value. Where two headings read alike, the source gives them in different places.

Assays:
Format in all cases: cell-based
Pyogenic Streptococcus = assay: microbe, parasite or virus in culture; settings: 37° C., 24 h, read-out: Minimum Inhibitory Concentration, MIC
[1] = system: Staphylococcus aureus 705 (MRSA); assay: microbe, parasite or virus in culture; settings: 24 h, read-out: Minimum Inhibitory Concentration, MIC
[2] = system: Streptococcus pneumoniae M2; assay: microbe, parasite or virus in culture; settings: 37° C., 24 h, read-out: Minimum Inhibitory Concentration, MIC
[3] = system: Enterococcus fecal F631 (VRE); assay: organism not typed; settings: 24 h, read-out: Minimum Inhibitory Concentration, MIC
Streptococcus 10342 = assay: MIC broth microdilution; settings: 37° C., 24 h, read-out: Minimum Inhibitory Concentration, MIC
[4] = system: Streptococcus bovis 10035; assay: microbe, parasite or virus in culture; settings: Streptococcus equinus, 37° C., 24 h, read-out: Minimum Inhibitory Concentration, MIC
[5] = system: Enterococcus faecalis 1513 (VRE); assay: microbe, parasite or virus in culture; settings: 24 h, read-out: Minimum Inhibitory Concentration, MIC
[6] = system: Staphylococcus aureus 704 (MRSA); assay: microbe, parasite or virus in culture; settings: 24 h, read-out: Minimum Inhibitory Concentration, MIC
[7] = system: Corynebacterium diphtheriae; assay: microbe, parasite or virus in culture; settings: 37° C., 24 h, read-out: Minimum Inhibitory Concentration, MIC
[8] = system: Staphylococcus aureus 703 (MRSA); assay: microbe, parasite or virus in culture; settings: 24 h, read-out: Minimum Inhibitory Concentration, MIC
Bacillus cereus 2 = assay: microbe, parasite or virus in culture; settings: 37° C., 24 h, read-out: Minimum Inhibitory Concentration, MIC
[9] = system: Streptococcus pneumoniae 10351; assay: microbe, parasite or virus in culture; settings: 37° C., 24 h, read-out: Minimum Inhibitory Concentration, MIC
Bacillus subtilis 168 = assay: microbe, parasite or virus in culture; settings: 37° C., 24 h, read-out: Minimum Inhibitory Concentration, MIC
Gram-positive Bacteria = settings: the majority of Bacillus cereus, Bacillus subtilis and Enterococcus faecalis
[10] = system: Streptococcus agalactiae B; assay: microbe, parasite or virus in culture; settings: 37° C., 24 h, read-out: Minimum Inhibitory Concentration, MIC
[11] = system: Staphylococcus aureus 43300 (MRSA); assay: microbe, parasite or virus in culture; settings: 24 h, read-out: Minimum Inhibitory Concentration, MIC
Clostridium tetani = assay: microbe, parasite or virus in culture; settings: 24 h
Clostridium perfringens = assay: microbe, parasite or virus in culture; settings: 24 h, read-out: Minimum Inhibitory Concentration, MIC
Bacillus cereus 246 = assay: microbe, parasite or virus in culture; settings: 37° C., 24 h, read-out: Minimum Inhibitory Concentration, MIC
[12] = system: Streptococcus pneumoniae 6303 (PRSP); assay: microbe, parasite or virus in culture; settings: 24 h, read-out: Minimum Inhibitory Concentration, MIC
Oral candidiasis = assay: MIC broth microdilution; settings: Microorganism 32, Oral candidiasis; 37° C., 24 h; read-out: Minimum Inhibitory Concentration, MIC
[13] = system: Enterococcus faecalis 583 (VRE); assay: microbe, parasite or virus in culture; settings: 24 h, read-out: Minimum Inhibitory Concentration, MIC
[14] = system: Streptococcus pneumoniae 6301; assay: microbe, parasite or virus in culture; settings: 37° C., 24 h, read-out: Minimum Inhibitory Concentration, MIC
[15] = system: Staphylococcus aureus 29231; assay: microbe, parasite or virus in culture; settings: 37° C., 24 h, read-out: Minimum Inhibitory Concentration, MIC
[16] = system: Enterococcus faecalis 51299; assay: microbe, parasite or virus in culture; settings: Enterococcus faecalis, 51299, 24 h, read-out: Minimum Inhibitory Concentration, MIC
[17] = system: Enterococcus faecalis F2518 (VRE); assay: microbe, parasite or virus in culture; settings: 24 h, read-out: Minimum Inhibitory Concentration, MIC
green Streptococcus 1009 = assay: microbe, parasite or virus in culture; settings: 37° C., 24 h, read-out: Minimum Inhibitory Concentration, MIC
MIC broth microdilution = settings: Microorganism 33, Dermatophytosis; 37° C., 24 h; read-out: Minimum Inhibitory Concentration, MIC
Bacillus subtilis 82 = assay: microbe, parasite or virus in culture; settings: 37° C., 24 h, read-out: Minimum Inhibitory Concentration, MIC
[18] = system: Streptococcus pneumoniae 62; assay: microbe, parasite or virus in culture; settings: 37° C., 24 h, read-out: Minimum Inhibitory Concentration, MIC
Bacillus anthracis 1 = assay: microbe, parasite or virus in culture; settings: Bacillus anthracis, 1, 24 h, read-out: Minimum Inhibitory Concentration, MIC
[19] = system: Enterococcus faecalis 29212; assay: microbe, parasite or virus in culture; settings: 37° C., 24 h, read-out: Minimum Inhibitory Concentration, MIC
[20] = system: Enterococcus faecalis 19433; assay: microbe, parasite or virus in culture; settings: 37° C., 24 h, read-out: Minimum Inhibitory Concentration, MIC
[21] = read-out: Minimum Inhibitory Concentration, MIC, Microorganism 29, Clostridium tetani, 37° C.
[22] = read-out: Minimum Inhibitory Concentration, MIC, Microorganism 30, Clostridium tetani (second line of that name), 37° C.

Structure (SMILES) | MIC (Pyogenic Streptococcus) [µM] | MIC [1] [µM] | MIC [2] [µM] | MIC [3] [µM] | MIC (Streptococcus 10342) [µM] | MIC [4] [µM] | MIC [5] [µM] | MIC [6] [µM] | MIC [7] [µM] | MIC [8] [µM] | MIC (Bacillus cereus 2) [µM] | MIC [9] [µM] | MIC (Bacillus subtilis 168) [µM] | MIC [10] [µM] | MIC [11] [µM] | MIC (Clostridium tetani; [21]) [µM] | MIC (Clostridium tetani; [22]) [µM] | MIC (Clostridium perfringens) [µM] | MIC (Bacillus cereus 246) [µM] | MIC [12] [µM] | also measured
O=C1C(c2ccccc2)C(O)=Nc2cc(-c3ccc(C(F)(F)F)cc3)nn21 (stereo not shown) [Compound 42] | 1.23 (≈ 0.457 µg/mL) | 180 (≈ 66.9 µg/mL) | 0.02 (≈ 0.00743 µg/mL) | 21.2 (≈ 7.87 µg/mL) | 15.5 (≈ 5.76 µg/mL) | 1.28 (≈ 0.475 µg/mL) | 20.1 (≈ 7.46 µg/mL) | 230 (≈ 85.5 µg/mL) | 32 (≈ 11.9 µg/mL) | 172 (≈ 63.9 µg/mL) | 0.25 (≈ 0.0928 µg/mL) | 1.25 (≈ 0.464 µg/mL) | 1.23 (≈ 0.457 µg/mL) | 0.55 (≈ 0.204 µg/mL) | 150 (≈ 55.8 µg/mL) | 30.2 (≈ 11.2 µg/mL) | 80.3 (≈ 29.8 µg/mL) | 2.01 (≈ 0.746 µg/mL) | 0.23 (≈ 0.0854 µg/mL) | 203 (≈ 75.4 µg/mL) | inhibition of growth (conclusion from MICs) (Gram-positive Bacteria): significantly inhibited the growth; MIC (Oral candidiasis): 21.3 µM (≈ 7.91 µg/mL); MIC [13]: 30.3 µM (≈ 11.3 µg/mL); MIC [14]: 0.23 µM (≈ 0.0854 µg/mL); MIC [15]: 0.28 µM (≈ 0.104 µg/mL); MIC [16]: 21.2 µM (≈ 7.87 µg/mL); MIC [17]: 18.2 µM (≈ 6.76 µg/mL); MIC (green Streptococcus 1009): 1.25 µM (≈ 0.464 µg/mL); MIC (MIC broth microdilution): 52.1 µM (≈ 19.3 µg/mL); MIC (Bacillus subtilis 82): 0.02 µM (≈ 0.00743 µg/mL); MIC [18]: 0.25 µM (≈ 0.0928 µg/mL); MIC (Bacillus anthracis 1): 32.5 µM (≈ 12.1 µg/mL); MIC [19]: 20.5 µM (≈ 7.61 µg/mL); MIC [20]: 18.2 µM (≈ 6.76 µg/mL)
Nc1nc(-c2ccccc2)nc2c1cnn2-c1ccccc1 [Compound 38] | 126 (≈ 36.3 µg/mL) | 210 (≈ 60.4 µg/mL) | 156 (≈ 44.9 µg/mL) | 151 (≈ 43.4 µg/mL) | 131 (≈ 37.7 µg/mL) | 121 (≈ 34.9 µg/mL) | 150 (≈ 43.2 µg/mL) | 160 (≈ 46.1 µg/mL) | 150 (≈ 43.2 µg/mL) | 215 (≈ 61.8 µg/mL) | 124 (≈ 35.5 µg/mL) | 136 (≈ 39.2 µg/mL) | 212 (≈ 61.1 µg/mL) | 105 (≈ 30.2 µg/mL) | 210 (≈ 60.4 µg/mL) | 160 (≈ 46.1 µg/mL) | 120 (≈ 34.6 µg/mL) | 125 (≈ 35.9 µg/mL) | 154 (≈ 44.3 µg/mL) | 125 (≈ 35.9 µg/mL) | MIC (Oral candidiasis): 150 µM (≈ 43.2 µg/mL); MIC [13]: 160 µM (≈ 46.1 µg/mL); MIC [14]: 141 µM (≈ 40.4 µg/mL); MIC [15]: 100 µM (≈ 28.8 µg/mL); MIC [16]: 106 µM (≈ 30.6 µg/mL); MIC [17]: 116 µM (≈ 33.2 µg/mL); MIC (green Streptococcus 1009): 101 µM (≈ 29.1 µg/mL); MIC (MIC broth microdilution): 121 µM (≈ 34.8 µg/mL); MIC (Bacillus subtilis 82): 120 µM (≈ 34.5 µg/mL); MIC [18]: 140 µM (≈ 40.4 µg/mL); MIC (Bacillus anthracis 1): 266 µM (≈ 76.4 µg/mL); MIC [19]: 145 µM (≈ 41.7 µg/mL); MIC [20]: 108 µM (≈ 31.2 µg/mL)
